≈ marks a conversion by molar mass, not a printed value.
What was measured:
L. monocytogenes LK132 = type: cell-based, Listeria monocytogenes; details: LK132
Method: (§1) Each experiment was performed in triplicate.

[1] = tested on: L. monocytogenes LMG10470; type: cell-based, Listeria monocytogenes; details: LMG10470
Method: as §1

L. monocytogenes TT82E = type: cell-based, Listeria monocytogenes; details: TT82E
Method: as §1

Bacillus cereus CH-85 = type: cell-based; details: CH-85
Method: as §1

E. faecium LMG11423 = type: cell-based, Enterococcus faecium; details: LMG11423
Method: as §1

[2] = tested on: E. faecium LMG16003 (VRE); type: cell-based, Enterococcus faecium; details: LMG16003
Method: as §1

[3] = tested on: E. faecalis LMG16216 (VRE); type: cell-based, Enterococcus faecalis; details: LMG16216
Method: as §1

[4] = Spot-on-lawn assay, peptide-lipid II complex formation; type: binding, Lactococcus lactis; details: L. lactis MG1363, purified lipid II 300 μM, 2 μL at edge of halo, overnight 30 °C
Method: To evaluate the binding of peptide and lipid II or lipoteichoic acid (LTA), an overnight cultured L. lactis MG1363 was added to 0.8% GM17 (w/v, temperature 45 °C) at a final concentration of 0.1% (v/v), and then, the mixture was poured onto 10 mL plates. The binding of peptide and lipid II or LTA was further evaluated by spotting of purified lipid II (300 μM, 2 μL) or LTA (1 mg/mL, 2 μL) to the edge of the inhibition halo of antibiotics. Briefly, antimicrobials were loaded to the agar plate. After the antimicrobial solution drops had dried, lipid II or LTA was spotted to the edge of inhibition halo of antimicrobials. The plates were then incubated overnight at 30 °C after the drops had dried.

L. lactis MG1363 = assay: Time-kill assay; type: cell-based, Lactococcus lactis; details: 5-fold MIC
Method: The bactericidal activity of nisin, nisin(1–22), and rombocin was evaluated according to a previously described procedure based on Guo et al.[38] Briefly, an overnight culture of L. lactis MG1363 was diluted 50-fold in GM17 medium and incubated at 30 °C. The bacteria were grown until reaching an optical density at 600 nm (OD600) of 0.5, at which point the cell concentration was adjusted to 5 × 10^5 CFU/mL. Subsequently, the bacteria were challenged with a 5-fold MIC of each peptide. A control sample of an untreated cell suspension was included. At specific time points, 50 μL aliquots were collected, and undiluted and 10-fold serially diluted suspensions were plated on GM17 agar. The plates were incubated overnight at 30 °C, and the resulting colonies were counted and calculated as colony-forming units per milliliter (CFU/mL). Both assays were performed in triplicate to ensure reproducibility.

L. lactis [5] = assay: Fluorescence microscopy assay of membrane integrity (SYTO 9 / propidium iodide); type: cell-based, Lactococcus lactis; details: 5× MIC, 15 min / 20 min (method), room temperature
Method: L. lactis was cultured until it reached an OD600 of 0.8 and then pelleted at 8000g for 5 min and washed three times in 0.7% NaCl. The cell density was normalized to an OD600 of 0.4 in 0.7% NaCl, and a concentration of 5-fold MIC value of each tested antibiotic was added to the cell suspension simultaneously with SYTO 9 and propidium iodide using the LIVE/DEAD Baclight Bacterial Viability Kit (Invitrogen). After incubation at room temperature for 20 min, the compounds were removed by washing the cells with 0.7% NaCl. Finally, the cell suspensions were loaded onto 1.5% agarose pads and analyzed with a DeltaVision Elite microscope (Applied Precision).

L. lactis [6] = assay: Potassium ion efflux assay (PBFI probe); type: cell-based, Lactococcus lactis; details: 5× MIC, 10 mM HEPES pH 7.2 with 0.5% glucose, 10 μM PBFI
Method: To perform the K^+ release assay, we used the K^+-specific fluorescent probe PBFI. L. lactis was cultured in GM17 until the OD600 reached 0.6, after which the cells were harvested (5000g, 5 min) and washed twice with 10 mM HEPES (pH 7.2) with 0.5% glucose. The cells were then resuspended in the same buffer containing 10 μM PBFI. Data were analyzed using a Varioskan LUX Multimode Microplate Reader; cells were excited at 346 nm, and the fluorescence emission was measured at 505 nm to establish a baseline signal before the addition of 5-fold MIC antibiotics, after which data were collected. Nisin was used as a positive control.

[7] = pH stability by residual antimicrobial activity; type: physicochemical; details: residual antimicrobial activity vs L. lactis 1363, agar well, triplicate
Method: (§2) To investigate the impact of proteolytic enzymes, pH, and temperature on the antimicrobial activity, a representative strain of L. lactis 1363 was utilized. For the proteolytic enzyme assay, 40 μL of peptide (1 mg/mL) was incubated with or without final concentrations of 1 mg/mL proteolytic enzymes at room temperature for 3 h, followed by an activity test in the agar well. To determine pH stability, the pH was adjusted to 2, 4, 7, and 10 using 1 M HCl or NaOH. The temperature stability was assessed by incubating the peptide at 22, 50, 70, and 90 °C for a specified duration. All experiments were performed in triplicate.
(§3) Overnight cultures of the test strains were inoculated at a final concentration of 0.1% (v/v) into melted LB agar at 45 °C and then poured onto plates. After solidification, 8 mm wells were created and filled with 40 μL of the lantibiotic solution (1 mg/mL). The lantibiotics were activated by adding 5 μL of NisP directly to the well. The plates were then incubated overnight at 30 °C, and the zone of inhibition was measured. Zone diameters were calculated by subtracting the area of the well (πr^2) from the area of the zone (πr^2) and reported in millimeters. To determine the peptide concentration, purified and lyophilized peptides were resuspended in 0.05% aqueous acetic acid solution and quantified by HPLC following the protocol described by Schmitt et al.[44] All experiments were performed in triplicate.

[8] = Thermal stability by residual antimicrobial activity; type: physicochemical; details: residual antimicrobial activity vs L. lactis 1363, agar well, triplicate
Method: as §2
as §3, with “All experiments were performed in triplicate.” left out

Compound: C=C1NC(=O)[C@H]([C@@H](C)CC)NC(=O)C(NC(=O)C(=CC)NC(=O)[C@@H](N)[C@@H](C)CC)CSC[C@@H](C(=O)NC2C(=O)N[C@@H](C)C(=O)NCC(=O)N[C@H](C(=O)N[C@H](C(=O)NC3C(=O)NCC(=O)N[C@@H](C(C)C)C(=O)N[C@@H]([C@@H](C)CC)C(=O)N[C@@H](CCSC)C(=O)NC(=CC)C(=O)N[C@H](C(=O)N[C@@H](CCSC)C(=O)NC4CSC[C@@H](C(=O)N[C@@H](CCCCN)C(=O)O)NC(=O)CNC(=O)[C@H](CC(N)=O)NC4=O)CSC3C)[C@@H](C)CC)CSC2C)NC(=O)[C@H](CC(C)C)NC1=O (some centres unmarked) [rombocin A]
- MIC (L. monocytogenes LK132): 25 µg/mL (≈ 10.5 µM)
- MIC [1]: 25 µg/mL (≈ 10.5 µM)
- MIC (L. monocytogenes TT82E): 12,5 μg/mL
- MIC (Bacillus cereus CH-85): 25 µg/mL (≈ 10.5 µM)
- MIC (E. faecium LMG11423): 100 µg/mL (≈ 42 µM)
- MIC [2]: 100 µg/mL (≈ 42 µM)
- MIC [3]: 50 µg/mL (≈ 21 µM)
- binding to lipid II (effect of spotted lipid II on the inhibition halo) [4]: reduction in the antimicrobial activity against L. lactis
- time to complete killing (L. lactis MG1363; L. lactis MG1363, 5 × 10^5 CFU/mL, CFU counting, triplicate): 18 h
- bacteriostatic or bactericidal activity (L. lactis MG1363; L. lactis, time-dependent killing): strong bactericidal activity
- membrane integrity (SYTO 9 / propidium iodide fluorescence) (L. lactis [5]): membrane disruption similar to nisin
- release of intracellular potassium ions (PBFI fluorescence) (L. lactis [6]): did not have this effect
- retained activity ([7]; neutral pH, after 8 h of incubation): 70%
- reduction in activity ([7]; pH 2, 4, 7, and 10 (adjusted with 1 M HCl or NaOH), up to 5.5 h): less than 20%
- retained activity ([7]; pH 2 and 4, after 8 h of incubation): more than 80%
- incubation time to complete loss of activity ([8]; 90 °C): 7 h
- reduction in activity ([8]; temperatures between 22 and 50 °C, up to 10 h): less than 30%
